Where two headings read alike, the source gives them in different places.
Type: in vivo, CD1 (ICR) mice
Details: for Plasma Compound Concentration: Activated form 1 in plasma, 232.5 mg/kg (p.o.)
Description: It was then centrifuged to obtain plasma.

For `COC(=O)[C@@H](N)CCNC(=O)Oc1c2ccccc2c(OC(=O)NCC[C@H](N)C(=O)OC)c2oc(C(C)=O)cc12.Cl.Cl` [Example 11], the “Plasma Compound Concentration” value (0.25 hr, animal 1) was 18.86 µM, the “Plasma Compound Concentration” value (0.25 hr, animal 2) was 19.65 µM and the “Plasma Compound Concentration” value (0.25 hr, animal 3) was 25.31 µM. For the same compound, the “Plasma Compound Concentration” value (0.25 hr, mean) was 21.27 µM, the “Plasma Compound Concentration” value (0.5 hr, animal 1) was 17.48 µM and the “Plasma Compound Concentration” value (0.5 hr, animal 2) was 11.45 µM. For the same compound, the “Plasma Compound Concentration” value (0.5 hr, animal 3) was 17.11 µM, the “Plasma Compound Concentration” value (0.5 hr, mean) was 15.35 µM and the “Plasma Compound Concentration” value (1.0 hr, animal 1) was 10.87 µM. The “Plasma Compound Concentration” value (1.0 hr, animal 2) was 18.98 µM, the “Plasma Compound Concentration” value (1.0 hr, animal 3) was 15.93 µM and the “Plasma Compound Concentration” value (1.0 hr, mean) was 15.26 µM. For the same compound, the “Plasma Compound Concentration” value (2.0 hr, animal 1) was 13.53 µM, the “Plasma Compound Concentration” value (2.0 hr, animal 2) was 6.62 µM and the “Plasma Compound Concentration” value (2.0 hr, animal 3) was 13.57 µM. The “Plasma Compound Concentration” value (2.0 hr, mean) was 11.24 µM, the “Plasma Compound Concentration” value (4.0 hr, animal 1) was 6.12 µM and the “Plasma Compound Concentration” value (4.0 hr, animal 2) was 3.73 µM. For the same compound, the “Plasma Compound Concentration” value (4.0 hr, animal 3) was 11.49 µM, the “Plasma Compound Concentration” value (4.0 hr, mean) was 7.11 µM and the “Plasma Compound Concentration” value (6.0 hr, animal 1) was 2.37 µM. The “Plasma Compound Concentration” value (6.0 hr, animal 2) was 0.60 µM, the “Plasma Compound Concentration” value (6.0 hr, animal 3) was 0.75 µM and the “Plasma Compound Concentration” value (6.0 hr, mean) was 1.24 µM. The “Plasma Compound Concentration” value (24.0 hr, animal 3) was 0.04 µM, the “Plasma Compound Concentration” value (24.0 hr, mean) was 0.01 µM and the “concentration of 2-acetylnaphtho[2,3-b]furan-4,9-dione (Activated form 1) observed (in words)” value (orally administered to mice) was “high concentration”.

— patent US10800752B2, “Substituted naphtho[2,3-b]furans as water-soluble prodrugs for preventing and/or treating cancer” (BOSTON BIOMEDICAL, INC., priority 2015, dated 2020)
